Each structure is given as a SMILES string. Positions of bridges follow the written chain, without caps; N, C: chain ends. Non-standard residues stand in square brackets, D forms with d. Residues, ends and D or L forms follow the SMILES beside them.

In test [1] the test system is growth hormone (GH). As to the kind of experiment: Duration of activity, growth hormone level at 2 and 4 hours. It is filed as in vivo. The note with it: dose 1,000 μg/kg, *p<0.01. An excerpt: The duration of activity of the product of Example 2 was as follows: […]
For another test, the system named is glucagon. In words: Arginine-stimulated Nembutal-anesthetized rats, blood glucagon by radioimmunoassay. It is filed as in vivo, rat. As to conditions: albino male rats, dose 100 μg/kg subcutaneous, arginine 10 min later, blood 5 min after arginine; control 133 ± 13; *p<0.05. The procedure:
(§1) The product of the preceding examples illustrates the selective activity of the compounds of this invention for growth hormone and glucagon suppression in the following standard procedure:
(§2) Albino male rats are administered Nembutal intraperitoneally at a dose of 50 milligrams per kilogram. Fifteen minutes later a subcutaneous injection of the test compound or physiological saline (control) is administered. Ten minutes later 0.5 milliliters of arginine (300 milligrams per milliliter, pH 7.2) is injected into the heart. Five minutes after receipt of the arginine the rats are decapitated and blood is collected into trasylol-EDTA. An appropriate aliquot is assayed for growth hormone (GH), insulin, and glucagon by radioimmunoassay.

For another test, the system named is insulin. As to the kind of experiment: Arginine-stimulated Nembutal-anesthetized rats, blood insulin by radioimmunoassay. Format: in vivo, rat. The note with it: albino male rats, dose 100 μg/kg subcutaneous, arginine 10 min later, blood 5 min after arginine; control 74 ± 4. The procedure: as §1, §2
Test [2] relates to growth hormone (GH). In words: Arginine-stimulated Nembutal-anesthetized rats, blood growth hormone by radioimmunoassay. Format: in vivo, rat. The note with it: albino male rats, dose 100 μg/kg subcutaneous, arginine 10 min later, blood 5 min after arginine; control 488 ± 82; *p<0.05. On the procedure:
as §1, §2

As for `C[C@@H](O)[C@@H]1NC(=O)[C@H](CCCCN)NC(=O)[C@@H](Cc2c[nH]c3ccccc23)NC(=O)[C@H](Cc2c[nH]c3ccccc23)NC(=O)[C@H](Cc2ccccc2)NC(=O)[C@@H](N)CSSC[C@H](C(=O)O)NC(=O)[C@H](Cc2ccccc2)NC1=O` [Example 2, L-Cysteinyl-L-phenylalanyl-L-tryptophyl-D-tryptophyl-L-lysyl-L-threonyl-L-phenylalanyl-D-cysteine cyclic (1-8) disulfide] (H-CFW[dW]KTF[dC]-OH; disulfide 1-8), the GH in the test on growth hormone (GH) [1] (2 hours, control 369 ± 60) turned out to be 60 ± 6 ng/mL; in the test on growth hormone (GH) [1] (4 hours, control 354 ± 68), 75 ± 10 ng/mL; in the test with growth hormone (GH) [2] it was 191 ± 60 ng/mL. This compound came in with a GLUN with glucagon of 60 ± 12 pg/mL. In addition, in the test with insulin, the INS was 69 ± 4 μU/ml.

(Values after patent US4225472A, “Truncated somatostatin analogs” (American Home Products Corporation, priority 1979, dated 1980).)
